Measurements: patent US9868695B2 (priority 2014, dated 2018)
pEC50, pIC50: −log10 of the molar value. Values joined by “and” are separate entries in the source; they are usually repeats but may differ in a detail not shown here. Equal entries are not always repeated. Where two headings read alike, the source gives them in different places.

Experiments:
Colo-205 = assay: Antiproliferative activity, MTT assay, Colo-205; type: cell-based; details: Homo sapiens, 48 h
Method: (§1) Human colon cancer cell lines HCT-116 (NCI, passage no. 5) and Colo-205 116 (NCI, passage no. 3) were procured from National Cancer Institute, USA. HCT-116 and Colo-205 cells were grown in McCoy's 5A and RPMI growth medium respectively containing 10% FCS, 100 U penicillin and […] per mL medium. Cells were grown in CO2 incubator (Thermocon Electron Corporation, Houston, Tex.) at 37° C. with 95% humidity and 5% CO2 gas environment. Cells treated with tested materials were dissolved in DMSO while the untreated control cultures received only the vehicle (DMSO<0.2%). Cells were seeded in 96 well plates and exposed to tested compounds at various concentrations for 48 h time interval. MTT dye (2.5 mg/ml in PBS) was added 4 hrs priors to experiment termination. The plates were then centrifuged at 1500 rpm for 15 min and the supernatant was discarded, and MTT formazan crystals were dissolved in 150 μl of DMSO. The OD measured at 570 nm with reference wavelength of 620 nm.
(§2) The percentages of cell viability and growth inhibition were calculated using formulas: […]

[1] = Oral and IV pharmacokinetic studies; type: in vivo; details: BALB/c mice; for bioavailability: PO 10 mg/Kg vs IV 1 mg/Kg
Method: Oral and intravenous (IV) pharmacokinetic studies of compound 1g were carried out in BALB/c male mice (Jubilant Biosys Limited, Bangalore) of age 4-6 weeks, by administering 1g orally and IV at dose of 10 mg/kg for oral and 1 mg/kg for IV. Plasma samples were collected at appropriate time points between the range of 0 hours to 24 hours and analyzed by LC-MS-MS. Mean plasma concentration calculated and data were further analyzed for PK parameters using WinNonlin 5.3 software package.

[2] = Thermodynamic equilibrium solubility; type: physicochemical; details: 25 °C, thermodynamic from solid, 25±1° C.
Method: The compounds were first dissolved in methanol to prepare stock solutions (100 and 1000 μg/mL). Different concentrations of stock solutions were pipetted into the 96-well plates and the solvent was evaporated to ensure that solid drug was present in the beginning of the experiment. Thereafter, 200 μl of the dissolution medium was added to the wells and 96-well plate was shaken horizontally at 300 rpm (Eppendorf Thermoblock Adapter, North America) for 4 h at room temperature (25±1° C.). The plates were kept overnight for equilibration of drug in medium. Later, the plates were centrifuged at 3000 rpm for 15 min (Jouan centrifuge BR4i). Supernatant (50 μl) was pipetted into UV 96-well plates (Corning® 96 Well Clear Flat Bottom UV-Transparent Microplate) for analyses with plate reader (SpectraMax Plus384) at λmax of 350 nm. The analyses were performed in triplicate for each compound. The solubility curve of concentration (μg/mL) vs absorbance was plotted to find out saturation point and the corresponding concentration was noted.

HCT-116 = assay: Antiproliferative activity, MTT assay, HCT-116; type: cell-based, Human; details: 48 h
Method: as §1, §2

Ehrlich solid tumor = assay: In vivo activity in Ehrlich solid tumor model; set-up: species or system swiss mice; details: i/p day 1-9, 1 0.75 mg/kg, 1g 1 mg/kg, 5-fluorouracil 22 mg/kg; for Mortality: dead/group size
Method: Ehrlich ascites carcinoma (EAC) cells were collected from the peritoneal cavity of the swiss mice (animal house of IIIM registered eith CPCSEA; registration no. 67/99/CPCSEA) weighing 18-23 gm, harbouring 8-10 days old ascitic tumor. 1×10^7 EAC cells were injected intramuscularly in the right thigh of 38 swiss male mice selected for the experiment on day 0. The next day, animals were randomized and divided into five groups. Four treatment groups contained 7 animals each and one control group contained 10 animals. Treatment was given as follows:
Group I: 1 (0.75 mg/kg, i/p) from day 1-9.
Group II: 1g (1 mg/kg, i/p) from day 1-9.
The third treatment group was treated with 5-fluorouracil (22 mg/kg, i/p) from day 1-9 and it served as positive control. The control group was similarly administered normal saline (0.2 ml, i/p) from day 1-9. On day 9 & 13, tumor bearing thigh of each animal was shaved and longest and shortest diameters of the tumor were measured with the help of vernier caliper. Tumor weight of each animal was calculated using the following formula.
The percent tumor growth inhibition was calculated on day 13 by comparing the average values of treated groups with that of control group. Tumor growth in saline treated control animals was taken to be 100%.

P-gp = P-gp induction assay, rhodamine123 (Rh123) cell exclusion method in LS-180 cells
Method: All synthesized compounds were screened for their ability to induce P-gp by using rhodamine123 (Rh123) cell exclusion method. In this method, the P-gp function was evaluated in terms of rhodamine 123 (Rh123) accumulation and efflux. Briefly, the protocol used is as follows: Colorectal LS-180 cells (ECACC type, purchased from Sigma, Cat. no. 87021202, cell passage no. 52) were seeded at a density of 2×10^4 per well of 96 well plate and were allowed to grow for next 24 h. Cells were further incubated with the test compounds, and were diluted to a final concentration of 100 nM and rifampicin (standard) to a final concentration of 10 μM in complete media for 48 h. The final concentration of DMSO was kept at 0.1%. Drugs were removed and cells were incubated with HANKS buffer for 40 minutes before further incubation with HANKS buffer (containing 10 μM of Rh123 as a P-gp substrate) for 90 minutes. At the end of Rh123 treatment cells were washed four times with cold PBS followed by cell lysis for 1 h by using 200 μl of lysis buffer (0.1% Triton X-100 and 0.2 N NaOH). A total of 100 μl of lysate was used for reading fluorescence of Rh123 at 485 nm/529 nm. Samples were normalized by dividing fluorescence of each sample with total protein present in the lysate. For EC50 determination, different concentrations of compound were used to treat LS180 cells for 48 h. EC50 was determined by plotting fluorescence of Rh123 against concentration of compound.

[3] = male, mouse, plasma, IV 1 mg/Kg
[4] = male, mouse, plasma, PO 10 mg/Kg

## COc1cc2c(c(OC)c1OC)-c1ccc(Nc3ccc(Cl)c(C(F)(F)F)c3)c(=O)cc1[C@@H](NC(C)=O)CC2 [Compound 1g, N-[(7S)-1,2,3-Trimethoxy-9-oxo-10-[3-(trifluoromethyl)-4-chloro-phenylamino]-5,6,7,9-tetrahydrobenzo[a]heptalen-7-yl]acetamide]
Colo-205
  pIC50: 7.52
[1]; IV 1 mg/Kg
  Tlast: 8.00 h
[1]; IV 1 mg/Kg, 1 mg/kg
  CL: 6.19 mL/min/kg
[1]
  bioavailability: 64.4 % F
[1]; male, BALB/c, mouse, plasma, iv, 1 mg/kg, IV 1 mg/Kg
  clearance: ~6 mL/min/kg
[1]; male, BALB/c, mouse, plasma, iv, 1 mg/kg, IV 1 mg/Kg, read-out: Vd
  Vd: 1.49 L/kg
[1]; male, BALB/c, mouse, plasma, iv, 1 mg/kg, IV 1 mg/Kg, read-out: Vdss
  Vd: 1.47 L/kg
[1]; [3]
  AUC(0-inf): 2690 ng·h/mL
  AUC(0-t): 2340 ng·h/mL
  Cmax: 698 ng/mL
[1]; male, mouse, plasma, IV 1 mg/Kg, extrapolated, calculated manually using initial 3 time points
  C0: 819 ng/mL
[1]; male, mouse, plasma, IV 1 mg/Kg, read-out: t1/2, β (converted)
  half-life: 167 min
[1]; male, mouse, plasma, read-out: absolute oral bioavailability
  bioavailability: 64%
[1]; [4]
  AUC(0-inf): 17300 ng·h/mL
  AUC(0-t): 16900 ng·h/mL
  Cmax: 3030 ng/mL
  Tmax: 2 h
[1]; male, mouse, plasma, PO 10 mg/Kg, read-out: t1/2,β (converted)
  half-life: 326 min
[2]; aqueous buffer, phosphate buffer saline, read-out: Solubility, PBS
  solubility: > 1500 µg/mL
[2]; fassgf or other biorelevant, simulated intestinal fluid, read-out: Solubility, SIF
  solubility: > 1500 µg/mL
[2]; simulated gastric fluid, read-out: Solubility, SGF
  solubility: > 1500 µg/mL
[2]; water, read-out: Solubility, Water
  solubility: > 1500 µg/mL
HCT-116
  pIC50: 7.40
Ehrlich solid tumor; day 1
  Avg. body weights (g) of animal on days 1: 22.28 g
Ehrlich solid tumor; day 5
  Avg. body weights (g) of animal on days 5: 22.0 g
Ehrlich solid tumor; day 9
  Avg. body weights (g) of animal on days 9: 21.28 g
Ehrlich solid tumor; day 13
  Day 13 Avg. body weights: 21.66 g
  Day 13 Avg. tumor weights: 778.0 mg
Ehrlich solid tumor; day 13 vs saline control
  % Tumor Growth Inhibition: 47.35%
Ehrlich solid tumor
  Mortality: no mortality and 0/7
Ehrlich solid tumor; listed as 4o
  Mortality: no mortality
P-gp; LS180 cells, Rh123 accumulation, in words
  P-gp induction activity: complete loss of P-gp induction activity
P-gp; compound 100 nM, 48 h, control = 100%, decrease indicates P-gp induction
  % intracellular accumulation of Rh123 in LS180 cells: 90%
P-gp; read-out: EC50, induction of P-gp, P-gp overexpressing LS-180 cells, 48 h
  pEC50: 7.16
